Laboratory results reported in ChEMBL document CHEMBL4507292 (2021).
pKi: −log10 of the molar value.

Columns and labels:
[1] = molecular target: Ribosomal protein S6 kinase alpha-3 (Homo sapiens) (UniProt P51812); details: Compound concentration 1000.0 nM
[2] = molecular target: GABA-A receptor; anion channel (Rattus norvegicus) (UniProt O09028+P15431+P18506+P18508+P19969+P20236+P23574+P23576+P28471+P28473+P30191+P62813+P63079+P63138+Q91ZM7+Q9ES14); details: Compound concentration 10.0 uM
[3] = molecular target: Mitogen-activated protein kinase 3 (Homo sapiens) (UniProt P27361); details: Compound concentration 1000.0 nM
Sequence of Mitogen-activated protein kinase 3 (Homo sapiens) (P27361 whole entry): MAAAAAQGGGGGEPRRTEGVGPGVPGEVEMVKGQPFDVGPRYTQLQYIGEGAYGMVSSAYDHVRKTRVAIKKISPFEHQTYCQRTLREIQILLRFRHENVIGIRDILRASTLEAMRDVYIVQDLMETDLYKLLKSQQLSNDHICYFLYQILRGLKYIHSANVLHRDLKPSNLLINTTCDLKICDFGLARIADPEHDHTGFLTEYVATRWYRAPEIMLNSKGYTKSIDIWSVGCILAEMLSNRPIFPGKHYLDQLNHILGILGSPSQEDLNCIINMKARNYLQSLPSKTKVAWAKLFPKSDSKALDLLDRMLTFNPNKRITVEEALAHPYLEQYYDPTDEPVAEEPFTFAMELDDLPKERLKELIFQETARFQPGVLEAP

[4] = molecular target: 5-hydroxytryptamine receptor 2B (Homo sapiens) (UniProt P41595); details: Compound concentration 10.0 uM
[5] = molecular target: Ephrin type-A receptor 7 (Homo sapiens) (UniProt Q15375); details: Compound concentration 1000.0 nM
[6] = molecular target: Activin receptor type-2B (Homo sapiens) (UniProt Q13705); details: Compound concentration 1000.0 nM
[7] = molecular target: Serine/threonine-protein kinase Sgk3 (Homo sapiens) (UniProt Q96BR1); details: Compound concentration 1000.0 nM
Sequence of Serine/threonine-protein kinase Sgk3 (Homo sapiens) (Q96BR1 whole entry): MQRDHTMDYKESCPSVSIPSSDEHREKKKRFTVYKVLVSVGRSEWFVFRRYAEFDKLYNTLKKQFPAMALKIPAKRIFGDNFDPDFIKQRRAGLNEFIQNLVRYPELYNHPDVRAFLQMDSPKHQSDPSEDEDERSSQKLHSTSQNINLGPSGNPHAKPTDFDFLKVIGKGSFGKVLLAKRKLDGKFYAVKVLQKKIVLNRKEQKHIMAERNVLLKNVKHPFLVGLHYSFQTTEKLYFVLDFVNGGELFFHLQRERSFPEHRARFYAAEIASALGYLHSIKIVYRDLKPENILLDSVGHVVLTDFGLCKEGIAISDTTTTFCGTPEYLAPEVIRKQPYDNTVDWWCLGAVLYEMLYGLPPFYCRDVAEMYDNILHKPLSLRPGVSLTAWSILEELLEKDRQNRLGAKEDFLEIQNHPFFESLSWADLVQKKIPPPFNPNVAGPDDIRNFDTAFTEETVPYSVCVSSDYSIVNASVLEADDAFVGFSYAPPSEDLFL

[8] = molecular target: Phosphatidylinositol 5-phosphate 4-kinase type-2 beta (Homo sapiens) (UniProt P78356); details: Compound concentration 1000.0 nM
[9] = molecular target: Serine/threonine-protein kinase WNK1 (Homo sapiens) (UniProt Q9H4A3); details: Compound concentration 1000.0 nM
[10] = molecular target: Tyrosine-protein kinase receptor UFO (Homo sapiens) (UniProt P30530); details: Compound concentration 1000.0 nM
Sequence of Tyrosine-protein kinase receptor UFO (Homo sapiens) (P30530 whole entry): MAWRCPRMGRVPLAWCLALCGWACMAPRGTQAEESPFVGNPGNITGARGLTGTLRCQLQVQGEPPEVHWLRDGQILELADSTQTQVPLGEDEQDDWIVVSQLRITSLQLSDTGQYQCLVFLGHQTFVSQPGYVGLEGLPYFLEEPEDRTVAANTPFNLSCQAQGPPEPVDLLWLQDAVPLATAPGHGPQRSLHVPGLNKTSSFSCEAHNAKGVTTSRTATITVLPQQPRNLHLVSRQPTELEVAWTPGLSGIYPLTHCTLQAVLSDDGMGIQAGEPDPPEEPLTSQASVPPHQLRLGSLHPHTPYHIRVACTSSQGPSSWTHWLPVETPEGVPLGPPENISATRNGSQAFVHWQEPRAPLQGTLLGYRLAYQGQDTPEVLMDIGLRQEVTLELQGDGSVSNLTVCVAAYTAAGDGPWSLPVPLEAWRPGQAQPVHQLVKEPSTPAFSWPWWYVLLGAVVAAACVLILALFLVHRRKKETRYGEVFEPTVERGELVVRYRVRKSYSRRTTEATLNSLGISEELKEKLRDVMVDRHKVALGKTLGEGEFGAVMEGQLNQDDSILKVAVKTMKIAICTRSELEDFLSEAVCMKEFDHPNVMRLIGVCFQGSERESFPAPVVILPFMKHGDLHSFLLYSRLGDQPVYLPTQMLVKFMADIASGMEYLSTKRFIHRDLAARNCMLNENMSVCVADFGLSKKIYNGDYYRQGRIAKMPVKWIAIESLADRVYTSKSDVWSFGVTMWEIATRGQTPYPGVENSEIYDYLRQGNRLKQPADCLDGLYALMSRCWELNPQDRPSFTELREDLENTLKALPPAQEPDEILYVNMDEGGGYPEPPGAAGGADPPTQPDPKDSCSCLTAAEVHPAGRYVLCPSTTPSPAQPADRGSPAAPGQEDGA

[11] = molecular target: Serine/threonine-protein kinase Nek3 (Homo sapiens) (UniProt P51956); details: Compound concentration 1000.0 nM
[12] = molecular target: STE20-like serine/threonine-protein kinase (Homo sapiens) (UniProt Q9H2G2); details: Compound concentration 1000.0 nM
[13] = molecular target: Epithelial discoidin domain-containing receptor 1 (Homo sapiens) (UniProt Q08345); details: Compound concentration 1000.0 nM
Sequence of Epithelial discoidin domain-containing receptor 1 (Homo sapiens) (Q08345 whole entry, the tested form may be a part): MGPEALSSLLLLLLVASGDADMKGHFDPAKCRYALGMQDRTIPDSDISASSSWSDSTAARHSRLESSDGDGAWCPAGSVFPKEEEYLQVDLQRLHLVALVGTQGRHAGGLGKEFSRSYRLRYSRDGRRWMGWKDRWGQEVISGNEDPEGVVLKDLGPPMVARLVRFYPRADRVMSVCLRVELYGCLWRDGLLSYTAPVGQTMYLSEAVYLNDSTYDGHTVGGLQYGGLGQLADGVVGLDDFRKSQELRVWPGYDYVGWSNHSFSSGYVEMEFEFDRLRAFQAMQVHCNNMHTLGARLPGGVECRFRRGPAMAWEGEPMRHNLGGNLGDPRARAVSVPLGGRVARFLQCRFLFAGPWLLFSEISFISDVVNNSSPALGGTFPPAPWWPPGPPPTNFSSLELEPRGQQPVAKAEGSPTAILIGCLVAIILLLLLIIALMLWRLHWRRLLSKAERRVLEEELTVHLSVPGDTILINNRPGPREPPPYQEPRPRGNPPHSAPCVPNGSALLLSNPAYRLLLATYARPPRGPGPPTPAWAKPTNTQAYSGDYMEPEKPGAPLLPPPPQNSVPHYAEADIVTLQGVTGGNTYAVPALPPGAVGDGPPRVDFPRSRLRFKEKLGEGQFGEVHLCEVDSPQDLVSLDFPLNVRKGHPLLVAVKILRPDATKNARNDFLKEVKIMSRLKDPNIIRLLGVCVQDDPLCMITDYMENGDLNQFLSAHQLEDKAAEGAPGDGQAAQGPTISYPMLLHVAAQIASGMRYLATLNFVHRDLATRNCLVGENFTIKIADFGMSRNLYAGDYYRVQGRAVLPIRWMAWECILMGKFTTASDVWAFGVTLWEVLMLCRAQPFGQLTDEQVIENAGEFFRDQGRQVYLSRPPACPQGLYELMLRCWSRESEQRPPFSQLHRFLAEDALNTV

[14] = test system: Epidermal growth factor receptor (Homo sapiens), P00533 [L858R]; details: Compound concentration 1000.0 nM
[15] = molecular target: Cyclin-dependent kinase-like 1 (Homo sapiens) (UniProt Q00532); details: Compound concentration 1000.0 nM
Sequence of Cyclin-dependent kinase-like 1 (Homo sapiens) (Q00532 whole entry): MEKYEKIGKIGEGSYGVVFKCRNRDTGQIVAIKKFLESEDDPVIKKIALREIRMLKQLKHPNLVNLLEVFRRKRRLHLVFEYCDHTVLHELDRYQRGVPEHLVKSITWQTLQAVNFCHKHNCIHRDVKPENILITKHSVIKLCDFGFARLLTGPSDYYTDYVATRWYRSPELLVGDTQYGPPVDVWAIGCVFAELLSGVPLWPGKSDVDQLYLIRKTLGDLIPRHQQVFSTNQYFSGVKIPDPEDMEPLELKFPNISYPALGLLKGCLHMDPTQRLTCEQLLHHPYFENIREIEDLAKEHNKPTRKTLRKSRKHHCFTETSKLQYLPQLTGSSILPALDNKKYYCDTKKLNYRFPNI

[16] = molecular target: Cyclin-dependent kinase 11B (Homo sapiens) (UniProt P21127); details: Compound concentration 1000.0 nM
D(1B) dopamine receptor = D(1B) dopamine receptor (Homo sapiens, UniProt P21918); assay: GPCRScan assay: inhibition of D5; design: radioligand conc. used [nm] 2.0 – 3.0, parental cells HEKT
Sequence of D(1B) dopamine receptor (P21918 whole entry): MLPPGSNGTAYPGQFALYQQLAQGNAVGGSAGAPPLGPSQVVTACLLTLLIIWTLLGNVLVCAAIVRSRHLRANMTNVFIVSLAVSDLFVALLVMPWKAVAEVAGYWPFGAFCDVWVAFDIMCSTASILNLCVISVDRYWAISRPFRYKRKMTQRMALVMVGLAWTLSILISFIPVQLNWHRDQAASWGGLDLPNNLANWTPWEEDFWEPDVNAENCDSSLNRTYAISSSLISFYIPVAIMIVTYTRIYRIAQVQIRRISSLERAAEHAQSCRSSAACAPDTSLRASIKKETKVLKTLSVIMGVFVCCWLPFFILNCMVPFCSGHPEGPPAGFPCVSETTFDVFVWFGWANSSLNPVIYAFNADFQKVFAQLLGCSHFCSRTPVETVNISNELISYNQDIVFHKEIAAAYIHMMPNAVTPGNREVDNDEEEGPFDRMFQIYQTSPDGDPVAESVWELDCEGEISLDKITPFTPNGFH

[17] = molecular target: Receptor-type tyrosine-protein kinase FLT3 (Homo sapiens) (UniProt P36888); details: Compound concentration 1000.0 nM
[18] = molecular target: T1, Alpha-2A adrenergic receptor (Homo sapiens) (UniProt P08913); details: Compound concentration 10.0 uM
T1 sequence (whole entry): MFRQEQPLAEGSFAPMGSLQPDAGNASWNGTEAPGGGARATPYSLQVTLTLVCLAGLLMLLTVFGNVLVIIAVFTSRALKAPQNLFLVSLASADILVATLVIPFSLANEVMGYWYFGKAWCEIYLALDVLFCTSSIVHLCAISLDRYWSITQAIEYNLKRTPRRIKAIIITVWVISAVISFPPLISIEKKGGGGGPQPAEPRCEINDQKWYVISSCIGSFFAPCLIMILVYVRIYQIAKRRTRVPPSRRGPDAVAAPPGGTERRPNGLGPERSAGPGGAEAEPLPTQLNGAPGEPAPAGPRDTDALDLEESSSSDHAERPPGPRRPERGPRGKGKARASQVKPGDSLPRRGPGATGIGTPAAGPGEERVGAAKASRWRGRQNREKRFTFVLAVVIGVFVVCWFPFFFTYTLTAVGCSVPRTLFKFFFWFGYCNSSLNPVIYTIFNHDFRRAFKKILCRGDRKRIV

[19] = molecular target: Death-associated protein kinase 2 (Homo sapiens) (UniProt Q9UIK4); details: Compound concentration 1000.0 nM
[20] = molecular target: Mitogen-activated protein kinase kinase kinase 20 (Homo sapiens) (UniProt Q9NYL2); details: Compound concentration 1000.0 nM
[21] = molecular target: SRSF protein kinase 2 (Homo sapiens) (UniProt P78362); details: Compound concentration 1000.0 nM
[22] = molecular target: Ephrin type-A receptor 4 (Homo sapiens) (UniProt P54764); details: Compound concentration 1000.0 nM
[23] = molecular target: Misshapen-like kinase 1 (Homo sapiens) (UniProt Q8N4C8); details: Compound concentration 1000.0 nM
[24] = molecular target: T2, 5-hydroxytryptamine receptor 3A (Homo sapiens) (UniProt P46098); details: Compound concentration 10.0 uM
T2 sequence (whole entry): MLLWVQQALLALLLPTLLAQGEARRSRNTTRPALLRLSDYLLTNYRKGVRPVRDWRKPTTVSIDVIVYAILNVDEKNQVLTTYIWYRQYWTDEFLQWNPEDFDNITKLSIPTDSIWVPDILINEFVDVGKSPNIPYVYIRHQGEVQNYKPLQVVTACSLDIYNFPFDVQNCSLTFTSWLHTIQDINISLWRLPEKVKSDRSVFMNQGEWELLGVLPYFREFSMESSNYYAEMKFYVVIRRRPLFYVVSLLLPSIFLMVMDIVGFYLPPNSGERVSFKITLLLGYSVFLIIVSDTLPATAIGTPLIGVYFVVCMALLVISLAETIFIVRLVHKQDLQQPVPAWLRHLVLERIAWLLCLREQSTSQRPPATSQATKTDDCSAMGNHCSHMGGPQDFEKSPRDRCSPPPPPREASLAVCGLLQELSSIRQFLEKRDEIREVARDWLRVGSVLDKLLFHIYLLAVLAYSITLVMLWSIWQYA

[25] = test system: Receptor-type tyrosine-protein kinase FLT3 (Homo sapiens), P36888 [UNDEFINED MUTATION]; details: Compound concentration 1000.0 nM
[26] = molecular target: Interleukin-1 receptor-associated kinase 3 (Homo sapiens) (UniProt Q9Y616); details: Compound concentration 1000.0 nM
[27] = test system: Receptor-type tyrosine-protein kinase FLT3 (Homo sapiens), P36888 [D835H]; details: Compound concentration 1000.0 nM
[28] = molecular target: Serine/threonine-protein kinase Nek2 (Homo sapiens) (UniProt P51955); details: Compound concentration 1000.0 nM
Sequence of Serine/threonine-protein kinase Nek2 (Homo sapiens) (P51955 whole entry): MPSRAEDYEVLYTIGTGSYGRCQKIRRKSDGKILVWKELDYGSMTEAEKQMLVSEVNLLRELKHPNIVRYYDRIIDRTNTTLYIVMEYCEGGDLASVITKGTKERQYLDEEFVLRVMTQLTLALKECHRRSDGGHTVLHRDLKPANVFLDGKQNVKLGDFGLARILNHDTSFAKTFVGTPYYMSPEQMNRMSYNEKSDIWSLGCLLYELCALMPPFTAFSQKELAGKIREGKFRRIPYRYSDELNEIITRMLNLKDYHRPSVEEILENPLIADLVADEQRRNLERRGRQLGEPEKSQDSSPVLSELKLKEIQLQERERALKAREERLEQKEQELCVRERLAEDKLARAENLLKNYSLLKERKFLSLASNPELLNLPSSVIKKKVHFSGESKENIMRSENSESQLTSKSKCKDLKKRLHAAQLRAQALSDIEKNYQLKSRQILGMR

[29] = molecular target: Ephrin type-B receptor 2 (Homo sapiens) (UniProt P29323); details: Compound concentration 1000.0 nM
Sequence of Ephrin type-B receptor 2 (Homo sapiens) (P29323 whole entry): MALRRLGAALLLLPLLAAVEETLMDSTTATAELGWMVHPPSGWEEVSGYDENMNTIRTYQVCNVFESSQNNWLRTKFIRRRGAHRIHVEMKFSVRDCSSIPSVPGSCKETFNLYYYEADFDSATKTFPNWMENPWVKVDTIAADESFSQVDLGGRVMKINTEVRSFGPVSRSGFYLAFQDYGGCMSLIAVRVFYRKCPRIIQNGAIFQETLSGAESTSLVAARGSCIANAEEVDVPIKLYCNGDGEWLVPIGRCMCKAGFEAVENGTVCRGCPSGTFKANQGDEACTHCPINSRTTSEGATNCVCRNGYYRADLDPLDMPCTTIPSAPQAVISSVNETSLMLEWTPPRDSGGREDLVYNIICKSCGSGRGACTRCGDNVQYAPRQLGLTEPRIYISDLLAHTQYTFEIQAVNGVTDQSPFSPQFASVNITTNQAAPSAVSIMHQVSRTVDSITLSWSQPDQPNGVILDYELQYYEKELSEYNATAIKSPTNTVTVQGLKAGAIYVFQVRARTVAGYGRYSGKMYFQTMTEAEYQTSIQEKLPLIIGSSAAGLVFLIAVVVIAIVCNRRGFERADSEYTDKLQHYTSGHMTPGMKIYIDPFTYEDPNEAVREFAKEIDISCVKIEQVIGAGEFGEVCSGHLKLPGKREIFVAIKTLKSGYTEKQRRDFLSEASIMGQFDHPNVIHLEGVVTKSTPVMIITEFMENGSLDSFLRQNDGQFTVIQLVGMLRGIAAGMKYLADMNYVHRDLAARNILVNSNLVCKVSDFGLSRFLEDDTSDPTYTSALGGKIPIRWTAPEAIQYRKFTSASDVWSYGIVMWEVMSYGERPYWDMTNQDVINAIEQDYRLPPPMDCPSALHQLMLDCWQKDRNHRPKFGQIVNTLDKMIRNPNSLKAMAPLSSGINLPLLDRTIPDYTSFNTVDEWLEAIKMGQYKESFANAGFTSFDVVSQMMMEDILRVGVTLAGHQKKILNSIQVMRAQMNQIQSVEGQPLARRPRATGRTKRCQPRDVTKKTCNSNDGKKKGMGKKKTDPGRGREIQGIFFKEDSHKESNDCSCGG

[30] = molecular target: Ephrin type-A receptor 3 (Homo sapiens) (UniProt P29320); details: Compound concentration 1000.0 nM

SMILES	residual activity [1] [%]	inhibition [2] [%]	residual activity [3] [%]	inhibition [4] [%]	residual activity [5] [%]	residual activity [6] [%]	residual activity [7] [%]	residual activity [8] [%]	residual activity [9] [%]	residual activity [10] [%]	residual activity [11] [%]	residual activity [12] [%]	residual activity [13] [%]	residual activity [14] [%]	residual activity [15] [%]	residual activity [16] [%]	pKi (D(1B) dopamine receptor)	residual activity [17] [%]	inhibition [18] [%]	residual activity [19] [%]	further results
O=C(O)c1cc(-c2ccc(C3CCNCC3)cc2)c2ccc(-c3ccc(C(F)(F)F)cc3)cc2c1 [PPTN]	100	-3.62	100	7.95	100	100	100	91	100	100	100	100	100	100	93	100	5.55	90	38.2	100	residual activity [20]: 100%; residual activity [21]: 100%; residual activity [22]: 100%; residual activity [23]: 98%; inhibition [24]: 4.14%; residual activity [25]: 100%; residual activity [26]: 100%; residual activity [27]: 81%; residual activity [28]: 100%; residual activity [29]: 100%; residual activity [30]: 100%
Cc1c(C(=O)O)cc(-c2ccc(C3CCNCC3)cc2)c2ccc(-c3ccc(C(F)(F)F)cc3)cc12 [PPTN-NC]	100	10.6	100	6.6	100	88	100	86	100	100	85	100	100	100	82	100	5.54	100	34.8	100	residual activity [20]: 100%; residual activity [21]: 82%; residual activity [22]: 100%; residual activity [23]: 100%; inhibition [24]: 4.62%; residual activity [25]: 100%; residual activity [26]: 100%; residual activity [27]: 90%; residual activity [28]: 100%; residual activity [29]: 92%; residual activity [30]: 100%
